Experimental data: patent US9771334B2, “Triketone compound and preparation method and use thereof” (SHANDONG CYNDA CHEMICAL CO., LTD., priority 2013, dated 2017)

Key:
Assay type in all cases: in vivo
abutilon theophrasti = test: Herbicidal activity, pot culture method (primary and secondary screening test); settings: sprayed at 3-leaf stage; for inhibition ratio, Abutilon theophrasti: investigated 15 days later; for herbicidal activity inhibition ratio (%), Abutilon theophrasti: primary screening, pot culture, 150 g/ha, result 15 days later
Summary of the method: (§1)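 Inhibition ratio (%) was scored 15 days after post-emergence spraying of 3-leaf-stage weeds grown in pots of soil:seedling matrix (1:2). Dose was 150 g/ha from a 0.2 g/L DMF/water solution applied by spray tower. The secondary screening used the same method at a reduced dose.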

amaranthus retroflexus = test: as above; settings: sprayed at 3-leaf stage; for inhibition ratio, Amaranthus retroflexus: investigated 15 days later; for herbicidal activity inhibition ratio (%), Amaranthus retroflexus: primary screening, pot culture, 150 g/ha, result 15 days later
Summary of the method: as §1

digitaria sanguinalis = test: as above; settings: sprayed at 3-leaf stage; for inhibition ratio, Digitaria sanguinalis: investigated 15 days later; for herbicidal activity inhibition ratio (%), Digitaria sanguinalis: primary screening, pot culture, 150 g/ha, result 15 days later
Summary of the method: as §1

echinochloa crusgalli = test: as above; settings: sprayed at 3-leaf stage; for inhibition ratio, Echinochloa crusgalli: investigated 15 days later; for herbicidal activity inhibition ratio (%), Echinochloa crusgalli: primary screening, pot culture, 150 g/ha, result 15 days later
Summary of the method: as §1

eclipta prostrata = test: as above; settings: sprayed at 3-leaf stage; for inhibition ratio, Eclipta prostrata: investigated 15 days later; for herbicidal activity inhibition ratio (%), Eclipta prostrata: primary screening, pot culture, 150 g/ha, result 15 days later
Summary of the method: as §1

setaria viridis = test: as above; settings: sprayed at 3-leaf stage; for inhibition ratio, Setaria viridis: investigated 15 days later; for herbicidal activity inhibition ratio (%), Setaria viridis: primary screening, pot culture, 150 g/ha, result 15 days later
Summary of the method: as §1

maize = test: Crop safety test (pot culture method); settings: plants with about 4-5 leaves, investigated 15 days later
Text: (§2) This test example is for describing crop safety of the compound with a structure shown in Formula (1). Crop safety test method (pot culture method): The test targets are wheat and maize. Take flowerpots with an inner diameter of 12 cm, put composite soil (vegetable garden soil:seedling matrix=1:2, v/v) into them till ¾ of flowerpot height, directly sow the crop seeds (budding rate>85%), cover them with 0.2 cm thick soil, and keep the plants for future use when they grow to have about 4-5 leaves. Each compound is dissolved in N,N-dimethylformamide at doses of 75 g/ha or 150 g/ha and diluted with distilled water containing 0.1% tween-80 emulsifier to form 0.1 g/L (75 g/ha) solution and 0.2 g/L (150 g/ha) solution respectively. The solutions are sprayed through an automatic spray tower. After the solutions on weed leaves are dried in the air, the flowerpots are moved into a greenhouse for cultivation. The result is investigated 15 days later.

wheat = test: Crop safety test (pot culture method); settings: plants with about 4-5 leaves, investigated 15 days later
Text: as §2

Row | SMILES | inhibition ratio, Abutilon theophrasti (abutilon theophrasti; dose 37.5 g/ha) [%] | inhibition ratio, Abutilon theophrasti (abutilon theophrasti; dose 75 g/ha) [%] | herbicidal activity inhibition ratio (%), Abutilon theophrasti (abutilon theophrasti) [%] | inhibition ratio, Amaranthus retroflexus (amaranthus retroflexus; dose 37.5 g/ha) [%] | inhibition ratio, Amaranthus retroflexus (amaranthus retroflexus; dose 75 g/ha) [%] | herbicidal activity inhibition ratio (%), Amaranthus retroflexus (amaranthus retroflexus) [%] | inhibition ratio, Digitaria sanguinalis (digitaria sanguinalis; dose 37.5 g/ha) [%] | inhibition ratio, Digitaria sanguinalis (digitaria sanguinalis; dose 75 g/ha) [%] | herbicidal activity inhibition ratio (%), Digitaria sanguinalis (digitaria sanguinalis) [%] | inhibition ratio, Echinochloa crusgalli (echinochloa crusgalli; dose 37.5 g/ha) [%] | inhibition ratio, Echinochloa crusgalli (echinochloa crusgalli; dose 75 g/ha) [%] | herbicidal activity inhibition ratio (%), Echinochloa crusgalli (echinochloa crusgalli) [%] | inhibition ratio, Eclipta prostrata (eclipta prostrata; dose 37.5 g/ha) [%] | inhibition ratio, Eclipta prostrata (eclipta prostrata; dose 75 g/ha) [%] | herbicidal activity inhibition ratio (%), Eclipta prostrata (eclipta prostrata) [%] | inhibition ratio, Setaria viridis (setaria viridis; dose 37.5 g/ha) [%] | inhibition ratio, Setaria viridis (setaria viridis; dose 75 g/ha) [%] | herbicidal activity inhibition ratio (%), Setaria viridis (setaria viridis) [%] | inhibition ratio, Maize (crop safety) (maize; dose 75 g/ha) [%] | inhibition ratio, Maize (crop safety) (maize; dose 150 g/ha) [%] | further results
1 | CC(C)c1ccccc1-n1c(=O)c2cc(C(=O)C3=C(O)CCCC3=O)ccc2n(C)c1=O [Compound 65] | 50 | 70 | 98 | 50 | 60 | 90 | 30 | 40 | 100 | 95 | 100 | 80 | 30 | 50 | 80 | 80 | 85 | 98 | 0 | 10 | inhibition ratio, Wheat (crop safety) (wheat; dose 75 g/ha): 0%; inhibition ratio, Wheat (crop safety) (wheat; dose 150 g/ha): 10%
2 | Cc1c(C(=O)C2=C(O)CC(C)(C)CC2=O)ccc2c1c(=O)n(-c1ccccc1C(F)(F)F)c(=O)n2C [Compound 91] | 85 | 93 | 100 | 60 | 80 | 100 | 70 | 90 | 100 | 65 | 90 | 100 | 80 | 93 | 100 | 100 | 100 | 100 | 0 | 10 | inhibition ratio, Wheat (crop safety) (wheat; dose 75 g/ha): 0%; inhibition ratio, Wheat (crop safety) (wheat; dose 150 g/ha): 10%
